# Experimental data published in patent publication US20250195444A1, “POLYMER-COATED NANOPARTICLES AND PREPARATION METHOD THEREFOR” (SCINDY PHARMACEUTICAL (SUZHOU) CO., LTD, priority 2022, published 2025).
# Assays:
# [1] = tested on: Carbapenem-susceptible Acinetobacter baumannii (10); assay: In vitro antimicrobial susceptibility testing, broth microdilution MIC; type: cell-based; details: 10 strains
# From the text: (§1) A total of 44 strains of clinically isolated Gram-negative bacteria were collected for antimicrobial susceptibility testing, including 12 strains of Escherichia coli (carbapenem-susceptible), 12 strains of Klebsiella pneumoniae (carbapenem-susceptible), 10 strains of Acinetobacter baumannii (carbapenem-susceptible), and 10 strains of Pseudomonas aeruginosa (carbapenem-susceptible).
# (§2) According to the recommendations of the 2021 edition of the Clinical and Laboratory Standards Institute (CLSI), a broth microdilution method was used to measure the minimum inhibitory concentration (MIC) of a test substance against clinical isolates. • (1) Preparation of antimicrobial drug: The test drug was dissolved and diluted, and the control drug was dissolved and diluted according to CLSI requirements. The test concentration range of the antibacterial drug solution was 0.015 mg/L to 32 mg/L. • (2) Culture medium: Cation adjusted muellerhinton broth (CAMHB), a product of BD Company, USA, batch number: 9324795. • (3) Inoculation amount: Fresh pure colonies on Columbia blood agar were picked using a direct colony suspension method. The colonies were adjusted to a McFarland turbidity of 0.5 and then appropriately diluted. The final concentration of the test bacteria was 10^5 CFU/mL. • (4) Culture conditions: The colonies were cultured in air at 35° C.±2° C. for 16 to 20 hours. • (5) Reading and judgment of results: For colistin, according to the European EUCAST breakpoint judgment standard, a result of <2 mg/L is susceptible, and a result of >4 mg/L is resistant. The lowest antimicrobial drug concentration that inhibits bacterial growth is read as an MIC value. • (6) Quality control strains: Escherichia coli ATCC 25922 and Pseudomonas aeruginosa ATCC 27853. • (7) Data statistics: WHONET version 5.6 software was used to perform statistical analysis on the results of the antimicrobial susceptibility testing.
# [2] = tested on: Carbapenem-susceptible Escherichia coli (12); assay: as above; type: cell-based; details: 12 strains
# From the text: as §1, §2
# [3] = tested on: Carbapenem-susceptible Gram-negative bacteria (44); assay: as above; type: cell-based; details: 44 strains
# From the text: as §1, §2
# [4] = tested on: Carbapenem-susceptible Klebsiella pneumoniae (12); assay: as above; type: cell-based; details: 12 strains
# From the text: as §1, §2
# [5] = tested on: Carbapenem-susceptible Pseudomonas aeruginosa (10); assay: as above; type: cell-based; details: 10 strains
# From the text: as §1, §2
# [6] = Safety test, maximum tolerated dose in ICR mice; type: in vivo; details: male ICR mice, intravenous injection, 1.5 mg/ml
# From the text: The drug safety of colistin sulfate, the nanoparticles of Examples 1 and 2, and the nanoparticles of Comparative Examples 1 and 2 in mice was compared.
# Test indicators: clinical observation, animal morbidity/death, and weight change. The maximum compound dosage that causes the weight loss of mice to not exceed 20% and no animal death is the maximum tolerated dose.
# HT29 cells = assay: Proliferation of HT29 cells in vitro (CCK8); type: cell-based; details: 72 hours of drug treatment, read-out: HT-29ReIC50
# Experimental: Cell culture: HT29 (Cat. No.: CBP30001L, purchased from Cobioer) was revived and cultured with 1640+10% FBS.
# Plating: Normally growing cells were digested with a trypsin cell digestion solution, then centrifuged, counted, and plated into a 96-well plate at a cell density of 3000 cells/well, 100 μL per well, for a total of 60 wells, and sealed with an appropriate amount of PBS around to prevent water evaporation in the edge wells.
# Administration: The administration was performed on the second day after cell plating, 100 μL of a drug solution was added to each well, and two replicate wells were set up for each concentration point.
# Detection: After 72 hours of drug treatment, all the liquid in the 96-well plate was poured out, and 100 μL of a CCK8 (diluted to 1:9 with culture medium) solution was added to each well. After incubation at 37° C. for a period of time (OD450 of Vehicle group reached above 1.0), the absorption at 450 nm was detected using an ELISA reader.
# Data processing: Inhibition Rate (%)=(1−OD450Sample/OD450Vehicle)×100, where
# OD450Sample is the 450 nm absorption value of the drug-treated group, and OD450Vehicle is the 450 nm absorption value of the DMSO control group. GraphPad Prism 8.0 software was used to draw an S-shaped dose-survival rate curve with a nonlinear regression model, and the IC50 value was calculated.
# [7] = Safety test, maximum tolerated dose in Balb/c nude mice; details: male Balb/c nude mice, intravenous injection, 1.0 mg/ml
# Experimental: Male Balb/c nude mice (purchased from Shanghai Lingchang Experimental Animal Co., Ltd.), 6 to 7 weeks old and weighing 17 g to 21 g, were given platinum cyclohexanediamine dihydrate or a platinum cyclohexanediamine dihydrate polymer-coated nanoparticle solution by intravenous injection at an administration concentration of 1.0 mg/ml. The dose volume was adjusted according to the weight of the animal. The highest dose that enables all subjects in the test to survive continuously is defined as MTD.
# Animal grouping: Before starting the administration, the animals were weighed and randomly grouped according to the weight.
# Test indicators: After administration, the mice were observed continuously for at least 14 days, and the observation interval and frequency were properly arranged so as to observe the occurrence of toxic reactions, recovery time, animal death time, etc. If the toxic reactions of the mice occur slowly or the mice recover slowly, the observation time should be appropriately extended.
substance,measurement,setting,value
colistin sulfate,MIC50,[1],0.5 µg/mL
same,MIC90,[1],0.5 µg/mL
same,Mode (MIC),[1],0.5 µg/mL
same,Resistance rate (%),[1]; EUCAST breakpoint,0%
same,Susceptibility rate (%),[1]; EUCAST breakpoint,100%
same,MIC50,[2],0.125 µg/mL
same,MIC90,[2],0.25 µg/mL
same,Mode (MIC),[2],0.125 µg/mL
same,Resistance rate (%),[2]; EUCAST breakpoint,0%
same,Susceptibility rate (%),[2]; EUCAST breakpoint,100%
same,MIC50,[3],0.5 µg/mL
same,MIC90,[3],2 µg/mL
same,Mode (MIC),[3],0.5 µg/mL
same,Resistance rate (%),[3]; EUCAST breakpoint,0%
same,Susceptibility rate (%),[3]; EUCAST breakpoint,100%
same,MIC50,[4],0.5 µg/mL
same,MIC90,[4],0.5 µg/mL
same,Mode (MIC),[4],0.5 µg/mL
same,Resistance rate (%),[4]; EUCAST breakpoint,0%
same,Susceptibility rate (%),[4]; EUCAST breakpoint,100%
same,MIC50,[5],1 µg/mL
same,MIC90,[5],2 µg/mL
same,Mode (MIC),[5],2 µg/mL
same,Resistance rate (%),[5]; EUCAST breakpoint,0%
same,Susceptibility rate (%),[5]; EUCAST breakpoint,100%
same,MTD,[6],8 mg/kg
platinum cyclohexanediamine dihydrate [Cyclohexanediamine platinum dihydrate],IC50,HT29 cells,1610 ± 230 nM
same,MTD,[7],<4 mpk
